Laboratory results: the Deep4Chem optical property database
Where “and” joins values, the source holds several entries; their conditions need not be identical. Equal entries are not always repeated. One block for each compound: values may come before it.

Experiment: solvent given as SMILES

fluorescence lifetime (in ClCCl): 2.72 ns
SMILES: CCN(CC)c1ccc2c(c1)oc(=O)c1c(C)nc3c(cnn3-c3ccccc3)c12

fluorescence lifetime (in ClC(Cl)Cl): 3.3 ns
SMILES: CCCCCCCCN1C(=O)c2ccc3c4c(-c5ccc(-n6c7ccccc7c7ccccc76)cc5)cc5c6c(cc(-c7ccc(-n8c9ccccc9c9ccccc98)cc7)c(c7ccc(c2c37)C1=O)c64)C(=O)N(CCCCCCCC)C5=O

fluorescence lifetime (in CC#N): 2.6 ns
SMILES: F[B-]1(F)OC(c2ccc3c(c2)Cc2ccccc2-3)=CC(c2ccccc2)=[O+]1

fluorescence lifetime (in ClCCl): 16.8 ns
SMILES: c1ccc2c(c1)Nc1ccccc1B2c1c2ccccc2cc2ccccc12

fluorescence lifetime (in ClCCl): 10.1 ns
SMILES: CCN(CC)c1ccc2cc(-c3ccc(-c4ccc(-c5cc6ccc(N(CC)CC)cc6oc5=O)cc4)cc3)c(=O)oc2c1

fluorescence lifetime (in CC1CCCCC1): 5 ns
fluorescence lifetime (in CC#N): 4.5 ns
SMILES: C(=C\c1c2ccccc2cc2ccccc12)/c1cccc2ccccc12

fluorescence lifetime (in CCOC(C)=O): 3.6 ns
fluorescence lifetime (in CS(C)=O): 4.3 ns
SMILES: c1ccc(Nc2nc(Nc3ccccc3)nc(Nc3ccc4c5cccc6cccc(c7cccc3c74)c65)n2)cc1

fluorescence lifetime (in C1CCOC1): 0.33 ns
fluorescence lifetime (in CC#N): 0.22 ns
fluorescence lifetime (in ClC(Cl)Cl): 1.87 ns
fluorescence lifetime (in ClCCl): 2.04 ns
SMILES: COc1ccc2cc(-c3ccc([N+](=O)[O-])cc3)ccc2c1

fluorescence lifetime (in c1ccccc1): 2.1 ns
SMILES: COc1ccc(-c2nc3c(ccc4ccccc43)oc2=O)cc1

fluorescence lifetime (in ClC(Cl)Cl): 7 ns
SMILES: CN(C)c1ccc(-c2cc(-c3cccs3)nc(-c3ccccc3)n2)cc1

fluorescence lifetime (in CCO): 6.1 ns
fluorescence lifetime (in ClCCl): 6.5 ns
SMILES: COCc1ncc(-c2c3ccccc3c(-c3cnc(COC)nc3)c3ccccc23)cn1

fluorescence lifetime (in N#Cc1ccc2c(c1)c1ccccc1n2-c1cccc(-n2c3ccccc3c3ccccc32)c1): 6.99 ns
SMILES: CC1(C)c2ccccc2N(c2ccc(-c3ccc(C#N)cc3)cc2)c2ccccc21

fluorescence lifetime (in ClCCl): 2.5 ns
SMILES: c1ccc(C2=Nc3cccc4[n+]3[B-](c3ccccc3)(N2)NC(c2ccccc2)=N4)cc1

fluorescence lifetime (in O): 3.49 ns
SMILES: CC1(C)C(=O)C=Cc2ccc(N)cc21

fluorescence lifetime (in C1CCCCC1): 7 ns
SMILES: Cc1cc(C)c(B(c2c(C)cc(C)cc2C)c2cc3cc(N(C)C)c4ccccc4c3c3c2ccc2ccccc23)c(C)c1

fluorescence lifetime (in ClCCl): 2.2 ns
SMILES: COc1ccc(C2=C(C)C3=C(c4c(-c5ccccn5)nc5ccccn45)c4c(C)cc(C)n4[B-](F)(F)[N+]3=C2C)cc1

SMILES: CC1=[O+][B-]2(OC(=O)C(=O)O2)OC(c2c3ccccc3cc3ccccc23)=C1
fluorescence lifetime (in CC#N): 2.1 ns
fluorescence lifetime (in ClC(Cl)(Cl)Cl): 1.2 ns

SMILES: N#Cc1c(-c2ccc(N(c3ccccc3)c3ccccc3)cc2)c(C#N)c(-c2ccc(N(c3ccccc3)c3ccccc3)cc2)c(C#N)c1-c1ccc(N(c2ccccc2)c2ccccc2)cc1
fluorescence lifetime (in O=P(c1ccccc1)(c1ccccc1)c1ccccc1Oc1ccccc1P(=O)(c1ccccc1)c1ccccc1): 6.21 ns

SMILES: c1ccc2c(c1)CCc1ccccc1N2c1c2ccccc2cc2ccccc12
fluorescence lifetime (in Cc1ccccc1): 41 ns

fluorescence lifetime (in CC#N): 0.51 ns
SMILES: c1cc2c3c(cccc3c1)C(N1CCOCCOCCN(C3=Nc4cccc5cccc3c45)CCOCC1)=N2

fluorescence lifetime (in O): 4.3 ns
SMILES: CC[n+]1nc2cc3c(cc2c2cc(C)ccc21)N(C)CCC3

SMILES: COc1cc(N(c2ccc(C=C(C#N)C#N)c(OC)c2)c2ccc(C=C(C#N)C#N)c(OC)c2)ccc1C=C(C#N)C#N
fluorescence lifetime (in C1COCCO1): 0.65 ns
fluorescence lifetime (in CC#N): 0.14 ns
fluorescence lifetime (in CC(C)=O): 0.17 ns
fluorescence lifetime (in CCOC(C)=O): 0.32 ns
fluorescence lifetime (in CN(C)C=O): 0.06 ns
fluorescence lifetime (in CO): 0.12 ns
fluorescence lifetime (in Cc1ccccc1): 0.03 ns
fluorescence lifetime (in ClC(Cl)Cl): 0.14 ns
fluorescence lifetime (in ClCCl): 0.09 ns

fluorescence lifetime (in ClCCl): 1.23 ns
SMILES: c1ccc2c(c1)OP1(=NP3(=NP(Oc4ccc5ccc6cccc7ccc4c5c67)(Oc4ccc5ccc6cccc7ccc4c5c67)=N1)Oc1ccccc1-c1ccccc1O3)Oc1ccccc1-2

fluorescence lifetime (in ClCCl): 9.88 ns
SMILES: CCN(CC)c1ccc2cc(-c3ccc(-c4ccc(-c5cc6ccccc6oc5=O)cc4)cc3)c(=O)oc2c1

fluorescence lifetime (in C1CCOC1): 2.24 ns
SMILES: Cc1csc2[n+]1[B-](F)(F)OC(c1ccc(N(C)C)cc1)=N2

SMILES: CCCCC(CC)CN1C(=O)c2cc(Oc3ccc(C(C)(C)C)cc3)c3c4c(Oc5ccc(OC)cc5)cc5c6c(cc(Oc7ccc(OC)cc7)c(c7c(Oc8ccc(C(C)(C)C)cc8)cc(c2c37)C1=O)c64)C(=O)N(c1c(C(C)C)cccc1C(C)C)C5=O (stereo not given)
fluorescence lifetime (in Cc1ccccc1): 5.25 ns

fluorescence lifetime (in ClCCl): 2.97 ns
SMILES: CCN(CC)c1ccc2c(-c3ccccc3C(=O)O)c3c([o+]c2c1)/C(=C/c1nc(-c2ccccc2)n2ccccc12)CCC3

fluorescence lifetime (in C1CCOC1): 2 ns
SMILES: CC(C)[Si](C#CC1=CC2=c3cc(C#C[Si](C(C)C)(C(C)C)C(C)C)c4nc(C(F)(F)C(F)(F)C(F)(F)F)nc5c(C#C[Si](C(C)C)(C(C)C)C(C)C)cc(c3c54)C3=CC(C#C[Si](C(C)C)(C(C)C)C(C)C)=C4N=C(C(F)(F)C(F)(F)C(F)(F)F)N=C1C4C32)(C(C)C)C(C)C (stereo not given)

fluorescence lifetime (in C1CCCCC1): 21.2 ns
fluorescence lifetime (in CC#N): 26.8 ns
fluorescence lifetime (in CO): 25.9 ns
fluorescence lifetime (in ClCCl): 23.2 ns
SMILES: COc1c2ccccc2c(OC)c2c1c1cc(Cl)ccc1n2C

fluorescence lifetime (in ClCCl): 2.68 ns
SMILES: c1ccc(N(c2ccccc2)c2ccc(-c3ccc(-c4cc(-c5ccccn5)nc(-c5ccccn5)c4)cc3)cc2)cc1

fluorescence lifetime (in C1CCOC1): 1.5 ns
SMILES: CCC1(CC)c2ccccc2-c2c1c1c(c3c2C(CC)(CC)c2cc(/C=C/c4cccs4)ccc2-3)C(CC)(CC)c2cc(/C=C/c3cccs3)ccc2-1

fluorescence lifetime (in C1CCCCC1): 0.41 ns
SMILES: CN(C)c1ccc2nc(-c3ccc(C=C4C(=O)c5ccccc5C4=O)cc3)sc2c1

SMILES: CC(C)(C)c1ccc(-c2nnc(-c3c(-n4c5ccccc5c5ccccc54)c(-n4c5ccccc5c5ccccc54)c(-c4nnc(-c5ccc(C(C)(C)C)cc5)o4)c(-n4c5ccccc5c5ccccc54)c3-n3c4ccccc4c4ccccc43)o2)cc1
fluorescence lifetime (in Cc1ccccc1): 12.7 ns

fluorescence lifetime (in C1CCOC1): 3.2 ns
SMILES: FC(F)(F)C(F)(F)C(F)(F)C1=NC2=C(c3ccccc3)C=C3c4cc(-c5ccccc5)c5nc(C(F)(F)C(F)(F)C(F)(F)F)nc6c(-c7ccccc7)cc(c4c56)=C4C=C(c5ccccc5)C(=N1)C2C34 (stereo not given)

SMILES: CCCCC1=Cc2c3ccc4cccc5ccc(c6cc(-c7ccccc7)n(c26)P1(=O)c1ccccc1)c3c45 (stereo not given)
fluorescence lifetime (in C1CCCCC1): 1.9 ns
fluorescence lifetime (in C1CCOC1): 1.7 ns
fluorescence lifetime (in C1COCCO1): 1.8 ns
fluorescence lifetime (in CC#N): 1.8 ns
fluorescence lifetime (in CC(C)=O): 1.8 ns
fluorescence lifetime (in CO): 1.7 ns
fluorescence lifetime (in Cc1ccccc1): 1.7 ns
fluorescence lifetime (in ClC(Cl)Cl): 1.6 ns
fluorescence lifetime (in ClCCl): 1.6 ns

fluorescence lifetime (in C1CCOC1): 0.0036 ns
SMILES: [O-]c1ccccc1/C=N/c1ccccc1/N=C/c1ccccc1[O-]

fluorescence lifetime (in C1CCCCC1): 168 ns and 96 ns
SMILES: c1ccc2ccccc2c1

fluorescence lifetime (in C1CCOC1): 0.54 ns
SMILES: Cc1cc(C2=C(c3c(C)sc(-c4ccc(-c5nc(-c6ccccc6)c(-c6ccccc6)[nH]5)cc4)c3C)C(F)(F)C(F)(F)C2(F)F)c(C)s1

fluorescence lifetime (in CC#N): 1.5 ns
SMILES: O=C(O)c1ccc(-c2nc(-c3ccccc3)c3ccccn23)cc1
